Test results published in the supplement of paper PMC4862054.

Experiments:
Conditions in all cases: incubation time: 72 h
HCC1143 = experiment: drug sensitivity score (DSS), CellTox Green (DSS (AUC-based score)); higher = stronger drug effect (viability inhibition or cytotoxicity); extreme values may be limits of the assay
Summary of the method: (§1)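 Plates with 384 wells held compound at 5 concentrations in 10-fold steps over a 10,000-fold range specific to each compound. Breast cancer cell lines were added in 20 µl suspension and incubated 72 h, then read for CellTox Green and CellTiter-Glo signals, with each plate normalised to 0.1 % DMSO and a positive kill control. The drug sensitivity score is based on the area under the fitted dose-response curve.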

MFM-223 [1] = experiment: as above
Summary of the method: as §1

MDA-MB-436 [2] = experiment: as above
Summary of the method: as §1

HCC1599 [3] = experiment: as above
Summary of the method: as §1

DU-4475 = experiment: as above
Summary of the method: as §1

BT-474 [4] = experiment: as above
Summary of the method: as §1

CAL-120 [5] = experiment: as above
Summary of the method: as §1

Hs578T [6] = experiment: as above
Summary of the method: as §1

CAL-85-1 [7] = experiment: as above
Summary of the method: as §1

MDA-MB-231 [8] = experiment: as above
Summary of the method: as §1

HCC1937 = experiment: drug sensitivity score (DSS), CellTiter-Glo (DSS (AUC-based score)); higher = stronger drug effect (viability inhibition or cytotoxicity); extreme values may be limits of the assay
Summary of the method: as §1

MFM-223 [9] = experiment: as above
Summary of the method: as §1

MDA-MB-453 = experiment: as above
Summary of the method: as §1

MCF-10A = experiment: as above
Summary of the method: as §1

HDQ-P1 = experiment: as above
Summary of the method: as §1

MDA-MB-436 [10] = experiment: as above
Summary of the method: as §1

HCC1599 [11] = experiment: as above
Summary of the method: as §1

BT-474 [12] = experiment: as above
Summary of the method: as §1

CAL-120 [13] = experiment: as above
Summary of the method: as §1

Hs578T [14] = experiment: as above
Summary of the method: as §1

CAL-85-1 [15] = experiment: as above
Summary of the method: as §1

MDA-MB-468 = experiment: as above
Summary of the method: as §1

CAL-51 = experiment: as above
Summary of the method: as §1

MDA-MB-231 [16] = experiment: as above
Summary of the method: as §1

BT-549 = experiment: as above
Summary of the method: as §1

CAL-148 = experiment: as above
Summary of the method: as §1

SK-BR-3 = experiment: as above
Summary of the method: as §1

SMILES	drug sensitivity score (HCC1143)	drug sensitivity score (MFM-223 [1])	drug sensitivity score (MDA-MB-436 [2])	drug sensitivity score (HCC1599 [3])	drug sensitivity score (DU-4475)	drug sensitivity score (BT-474 [4])	drug sensitivity score (CAL-120 [5])	drug sensitivity score (Hs578T [6])	drug sensitivity score (CAL-85-1 [7])	drug sensitivity score (MDA-MB-231 [8])	drug sensitivity score (HCC1937)	drug sensitivity score (MFM-223 [9])	drug sensitivity score (MDA-MB-453)	drug sensitivity score (MCF-10A)	drug sensitivity score (HDQ-P1)	drug sensitivity score (MDA-MB-436 [10])	drug sensitivity score (HCC1599 [11])	drug sensitivity score (BT-474 [12])	drug sensitivity score (CAL-120 [13])	drug sensitivity score (Hs578T [14])	drug sensitivity score (CAL-85-1 [15])	drug sensitivity score (MDA-MB-468)	drug sensitivity score (CAL-51)	drug sensitivity score (MDA-MB-231 [16])	drug sensitivity score (BT-549)	drug sensitivity score (CAL-148)	drug sensitivity score (SK-BR-3)
Nc1ccccc1NC(=O)c1ccc(CNc2nccc(-c3cccnc3)n2)cc1 [Mocetinostat]	0.874	0	10.1	1.87	0	2.44	3.91	7.44	7.11	8.8	6.31	5.07	9.7	1.13	4.52	5.31	5.88	6.06	6.33	5.95	6.32	8.18	8.93	6.07	8.43	7.02	8.95
CCC/C=C/C=C/C(=O)O[C@H]1/C(=C/C(=O)OC)C[C@H]2C[C@H]([C@@H](C)O)OC(=O)C[C@H](O)C[C@@H]3C[C@H](OC(C)=O)C(C)(C)[C@](O)(C[C@@H]4C/C(=C/C(=O)OC)C[C@H](/C=C/C(C)(C)[C@]1(O)O2)O4)O3 [Bryostatin 1]	0	0	–	0	0	0	0	0	0	0	0	0	0	0	1.62	0	0	1.75	0	4.68	0	0	6.93	0	0.294	0	10.8
Cc1c(CN2CCN(C(=O)[C@H](C)O)CC2)sc2c(N3CCOCC3)nc(-c3cnc(N)nc3)nc12 [GDC-0980]	3.43	6	0	0	0	4.57	0	0	2.26	0	6.52	12.7	17.5	12.6	14.1	8.47	2.28	8.66	10.9	12.6	11.8	10.1	14.7	9.56	13.1	12.4	18.5
CC/C(=C(\c1ccc(O)cc1)c1ccc(OCCN(C)C)cc1)c1ccccc1 [4-hydroxytamoxifen]	1.54	0	0.732	0	0	3.8	1.11	–	1.62	4.16	3.45	1.9	1.86	0	0	1.6	0	0	1.84	0	3.01	4.87	0	2.63	2.89	0	1.4
CO[C@@H](C(=O)N1Cc2[nH]nc(NC(=O)c3ccc(N4CCN(C)CC4)cc3)c2C1)c1ccccc1 [Danusertib]	0	0	3.88	0	0	0	3.17	15.2	0	0	0	14.3	0	12	3.68	4.68	0	5.14	6.46	3.96	0	18.3	9.2	5.32	10.7	3.57	0
O=C(Nc1c[nH]nc1-c1nc2ccc(CN3CCOCC3)cc2[nH]1)NC1CC1 [AT9283]	0	0	0	0	0	0	3.42	0.649	–	14.3	0	1.08	0	5.49	2.87	0	0	5.15	5.15	4.11	0	13.4	7.83	6.11	4.94	0	1.96
O=C(NC[C@H](O)CO)c1ccncc1Nc1ccc(I)cc1F [Pimasertib]	0	0	0	0	9.13	2.1	2.8	0	6.45	12.2	2.69	1.68	0	21.9	13	0.481	0	7.07	5.16	2.79	8.66	0	5.03	6.34	0.686	3.19	2.74
C[C@]12C=CC(=O)C=C1CC[C@@H]1[C@@H]2[C@@H](O)C[C@@]2(C)[C@H]1CC[C@]2(O)C(=O)CO [Prednisolone]	1.2	0	–	0	0	0	0	0	0	0	0	0	0	0	2.08	0	0	0	5.1	0	0	0	0	0	0	0	0
CCCCC/C=C/C=C1/C(=O)C=C[C@@H]1C/C=C\CCCC(=O)O [15D-PGJ2]	0	0	0	0	0	0	0	0	0	0	0	0	0	0	0	0	0	0	0	0	0	0	0	0	0	0	0
Cc1c(Cn2c(C)nc3c(C(=O)O)cc(N4CCOCC4)cc32)cccc1C(F)(F)F	0	0	0	0	0	0	0	0	0	0	0	0	0	0	0	0.153	0	0	0	0	0	3.65	12.3	0	3.9	0	0
CC[C@@]1(O)C(=O)OCc2c1cc1n(c2=O)Cc2cc3c(CN(C)C)c(O)ccc3nc2-1 [Topotecan]	0	2.66	8.04	2.71	0	0.158	3.76	0	7.11	10.2	6.32	0	5.74	4.97	0	13.6	18.3	3.82	5.11	1.55	11.1	20.8	11	4.13	10.8	18.7	14.1
O=S(=O)(c1cccc2cnccc12)N1CCCNCC1 [Fasudil]	0	0	0	0	0	0	0	0	0	2.62	0	0	1.2	0	0	0	0	0	0	0.0914	0	0	0	0	1.25	0	0
CC(C)N(CCCNC(=O)Nc1ccc(C(C)(C)C)cc1)C[C@H]1O[C@@H](n2cc(Br)c3c(N)ncnc32)[C@H](O)[C@@H]1O [SGC0946]	0	0	0	0	0	0	0	–	0	0	0	0	0	0	0	0	0	0	0	0	0	2.46	0	0	0	0	0
